Here are results for one molecule from EP1148124A1 (priority 1999, dated 2000).

The series can be described thus: Reporter assay (No. 1), cell number reporter gene (sea pansy luciferase, pRL-TK), clone of Example 2. The format is cell-based. The following applies: mouse, hepa1c1c7 cells, about 40 hours, ratio to 0 pg/ml, read-out: Amount of luminescence by sea pansy luciferase (from pRL-TK) Ratio. As for the experimental part:
For the measured values of the amount of expression of the cell number reporter gene, a ratio is determined of the measured value in the test substance added group to the measured value in the only solvent added group (control group). When the ratio is, for example, in the range of 0.8 to 1.2, the measured value of the amount of expression of the ligand responsive reporter gene in the test substance added group is selected for evaluating the agonist or antagonist activity of the test substance against the ability of a ligand responsive transcriptional regulatory factor to promote transcription. When the ratio takes a small value such as smaller than 0.8, for example, it is possible that the test substance has cytotoxicity. In contrast, when the ratio takes a large value such as greater than 1.2, for example, it is possible that the test substance has activity against the transcriptional regulatory system of a gene without mediation of a ligand responsive transcriptional regulatory factor. However, the range of this ratio suitable for selecting the measured value of the amount of expression of the […] reporter gene may vary depending on certain properties of the present cells used and the conditions of measurement, and it is not limited to the above examples of numerical values.
Separately, plasmid pGV-Ya-XREx5 (ligand responsive reporter gene containing plasmid) constructed in Example 1 was digested with Bam HI. Further, plasmid pRL-TK (cell number reporter gene containing plasmid; marketed by Toyo Ink) containing the sea pansy luciferase gene used as the cell number reporter gene was digested with Bam HI, and neomycin resistance (aminoglycoside phosphotransferase) gene containing plasmid pRc/RSV (available from INVITROGEN) was digested with Hind III. These three digested plasmids, i.e., Bam HI digested pGV-Ya-XREx5 (2.8 µg), Bam HI digested pRL-TK (2.8 µg), and Hind III digested pRc/RSV (0.5 µg), were then mixed with 300 µl of αMEM medium (mixture A), while 36 µl of lipofectin (available from GIBCO-BRL) was mixed with 300 µl of αMEM medium (mixture B). After being left at room temperature for 30 minutes, mixtures A and B were combined together and left at room temperature for 10 minutes. The Hepa1clc7 cells cultured overnight as described above were then washed once with αMEM medium, to which there was added a solution prepared by adding and mixing additional 5.4 ml of αMEM medium to the above mixture (A + B). Culturing of the resulting mixture was carried out for 5 hours. The medium was then replaced with 10% serum containing αMEM medium, followed by further culturing overnight. Subsequently, the cells were scratched from the petri dishes and collected, and the collected cells were suspended in 10% serum containing αMEM medium to have the total volume of 100 ml. The resulting cell suspension was plated on 96 well plates at a ratio of 100 µl/well. After these plates were cultured overnight, a medium prepared by dissolving geneticin (hereinafter referred to as "G418") in 10% serum containing αMEM medium to have a concentration of 1.6 mg/ml was added at a ratio of 100 µl/well (G418 final concentration 800 µg/ml). Culturing was further continued for 3 weeks, during which the medium was replaced with 10% serum containing αMEM medium containing 800 µg/ml G418 at a rate of once per week. The volume of the medium was set at 200 µl/well. After said 3 weeks, cells were scratched from the wells in which colony formation had been observed, and collected (for 192 wells), and the collected cells were divided into three and independently plated on different plates, followed by continuous culturing for 4 days. To the first plate, only DMSO was added (solvent control), and to the second plate, 3-methylcholanthrene (hereinafter referred to as "3-MC") dissolved in DMSO was added so that the final concentration of 3-MC in the second plate came to 10 µM per well. The first and second plates were then cultured overnight. […]
A general note: A reporter such as luciferase makes a cellular process visible.

Read-outs that look alike come from different tables or passages of the source.

On to `Clc1cc2c(cc1Cl)Oc1cc(Cl)c(Cl)cc1O2` [TCDD, 2,3,7,8-tetrachlorodibenzo-p-dioxin], for which the viability at 40 h (final conc. 0.02 pg/ml) came to 100%; the viability at 40 h (final conc. 0.2 pg/ml) turned out to be 90%; the viability at 40 h (final conc. 2 pg/ml) stood at 90%; the viability at 40 h (final conc. 20 pg/ml) worked out at 80%; the viability at 40 h (final conc. 200 pg/ml) amounted to 70%; the viability at 40 h (final conc. 2000 pg/ml) was found to be 60%. Under “final conc. 20000 pg/ml”, the viability at 40 h is 60%.
